Experimental data taken from patent US11566007B2, “Ras inhibitors” (Revolution Medicines, Inc., priority 2019, dated 2023).

What was measured:
[1] = biological target: NRAS Q61R (Homo sapiens (Human), UniProt P01111+P62937, Q61R); assay: Ras-Raf (BRAF RBD) disruption / FRET / MOA assay, NRAS Q61R; assay type: biochemical; settings: NRAS Q61R; Ras-Raf disruption/FRET/MOA assay; read-out: IC50* NRAS Q61R FRET data
Description: (§1) The purpose of this biochemical assay is to measure the ability of test compounds to facilitate ternary complex formation between a nucleotide-loaded Ras isoform and cyclophilin A; the resulting ternary complex disrupts binding to a BRAF^RBD construct, inhibiting Ras signaling through a RAF effector.
(§2) […]. Compound is present in plate wells as a 10-point 3-fold dilution series starting at a final concentration of 30 μM. After incubation at 25° C. for 3 hours, a mixture of Anti-His Eu-W1024 and anti-GST allophycocyanin is then added to assay sample wells at final concentrations of 10 nM and 50 nM, respectively, and the reaction incubated for an additional 1.5 hours. […] Compounds that facilitate disruption of a Ras:RAF complex are identified as those eliciting a decrease in the TR-FRET ratio relative to DMSO control wells.
(§3) Note—The following protocol describes a procedure for monitoring disruption of K-Ras G12C (GMP-PNP) binding to BRAF^RBD by a compound of the invention. This protocol may also be executed substituting other Ras proteins or nucleotides.
(§4) The purpose of this biochemical assay was to measure the ability of test compounds to facilitate ternary complex formation between a nucleotide-loaded K-Ras isoform and Cyclophilin A; the resulting ternary complex disrupts binding to a BRAF^RBD construct, inhibiting K-Ras signaling through a RAF effector. Data is reported as IC50 values.
as §2, with “Compound was” for “Compound is”, “allophycocyanin was” for “allophycocyanin is”, “a K-Ras:RAF” for “a Ras:RAF”, “complex were” for “complex are”

[2] = biological target: K-Ras G12C (Homo sapiens (Human), UniProt P01116+P62937, G12C); assay: Ras-Raf (BRAF RBD) disruption / FRET / MOA assay, KRAS G12C; assay type: biochemical; settings: KRAS G12C; Ras-Raf disruption/FRET/MOA assay; read-out: IC50* KRAS G12C FRET data
Outline: (§5)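 A 10-point, 3-fold dilution series topping at 30 μM final was incubated 3 h at 25° C with the Ras/cyclophilin A/BRAF RBD mixture.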

[3] = biological target: KRAS G12D (Homo sapiens (Human), UniProt P01116+P62937, G12D); assay: Ras-Raf (BRAF RBD) disruption / FRET / MOA assay, KRAS G12D; assay type: biochemical; settings: Ras-Raf disruption/FRET/MOA assay; class symbols; read-out: KRAS G12D FRET data IC50
Outline: as §5

[4] = biological target: KRAS G12S (Homo sapiens (Human), UniProt P01116+P62937, G12S); assay: Ras-Raf (BRAF RBD) disruption / FRET / MOA assay, KRAS G12S; assay type: biochemical; settings: Ras-Raf disruption/FRET/MOA assay; class symbols; read-out: KRAS G12S FRET data IC50
Outline: as §5

[5] = biological target: KRAS G12V (Homo sapiens (Human), UniProt P01116+P62937, G12V); assay: Ras-Raf (BRAF RBD) disruption / FRET / MOA assay, KRAS G12V; assay type: biochemical; settings: read-out: IC50* KRAS G12V FRET data
Outline: as §5

[6] = biological target: KRAS G13D (Homo sapiens (Human), UniProt P01116+P62937, G13D); assay: Ras-Raf (BRAF RBD) disruption / FRET / MOA assay, KRAS G13D; assay type: biochemical; settings: read-out: IC50* KRAS G13D FRET data
Outline: as §5

[7] = biological target: K-Ras G13C (Homo sapiens (Human), UniProt P01116+P62937, G13C); assay: Ras-Raf (BRAF RBD) disruption / FRET / MOA assay, KRAS G13C; assay type: biochemical; settings: KRAS G13C; Ras-Raf disruption/FRET/MOA assay; read-out: IC50* KRAS G13C FRET data
Outline: as §5

[8] = biological target: NRAS Q61K (Homo sapiens (Human), UniProt P01111+P62937, Q61K); assay: Ras-Raf (BRAF RBD) disruption / FRET / MOA assay, NRAS Q61K; assay type: biochemical; settings: NRAS Q61K; Ras-Raf disruption/FRET/MOA assay; read-out: IC50* NRAS Q61K FRET data
Description: as §1, §2, §3, §4
as §2, with “Compound was” for “Compound is”, “allophycocyanin was” for “allophycocyanin is”, “a K-Ras:RAF” for “a Ras:RAF”, “complex were” for “complex are”

[9] = biological target: KRAS WT (Homo sapiens (Human), UniProt P01116+P62937); assay: Ras-Raf (BRAF RBD) disruption / FRET / MOA assay, KRAS WT; assay type: biochemical; settings: read-out: IC50* KRAS WT FRET data
Outline: as §5

[10] = tested on: NCI-H358 cells (K-Ras G12C); assay: Potency assay: pERK in NCI-H358 cells; assay type: cell-based, human; settings: Homo sapiens, NCI-H358; H358 KRAS G12C; read-out: pERK EC50
Outline: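 pERK decrease read by AlphaLISA SureFire p-ERK1/2 or In-Cell Western after 4 h compound exposure at 37 °C, 5% CO2.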

[11] = biological target: NRAS WT (Homo sapiens (Human), UniProt P01111+P62937); assay: Ras-Raf (BRAF RBD) disruption / FRET / MOA assay, NRAS WT; assay type: biochemical; settings: read-out: IC50* NRAS WT FRET data
Description: as §1, §2, §3, §4
as §2, with “Compound was” for “Compound is”, “allophycocyanin was” for “allophycocyanin is”, “a K-Ras:RAF” for “a Ras:RAF”, “complex were” for “complex are”

[12] = biological target: NRAS G12C (Homo sapiens (Human), UniProt P01111+P62937, G12C); assay: Ras-Raf (BRAF RBD) disruption / FRET / MOA assay, NRAS G12C; assay type: biochemical; settings: read-out: IC50* NRAS G12C FRET data
Outline: as §5

[13] = biological target: KRAS Q61H (Homo sapiens (Human), UniProt P01116+P62937, Q61H); assay: Ras-Raf (BRAF RBD) disruption / FRET / MOA assay, KRAS Q61H; assay type: biochemical; settings: Ras-Raf disruption/FRET/MOA assay; class symbols; read-out: KRAS Q61H FRET data IC50
Outline: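 Compounds (30 μM top final, 10-point 3-fold dilutions) incubated 3 h at 25° C with nucleotide-loaded Ras, cyclophilin A and BRAF RBD. Detection with 10 nM anti-His Eu-W1024 and 50 nM anti-GST allophycocyanin over another 1.5 h. Lowered TR-FRET ratio relative to DMSO wells gives IC50.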

Chain of NRAS Q61K (P01111 whole entry Q61K): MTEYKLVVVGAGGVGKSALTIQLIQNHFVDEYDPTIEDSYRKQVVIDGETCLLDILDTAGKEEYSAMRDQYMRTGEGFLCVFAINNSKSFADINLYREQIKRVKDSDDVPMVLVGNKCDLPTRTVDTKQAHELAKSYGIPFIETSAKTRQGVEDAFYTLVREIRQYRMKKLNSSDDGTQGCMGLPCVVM
Chain of NRAS Q61K (P62937 whole entry): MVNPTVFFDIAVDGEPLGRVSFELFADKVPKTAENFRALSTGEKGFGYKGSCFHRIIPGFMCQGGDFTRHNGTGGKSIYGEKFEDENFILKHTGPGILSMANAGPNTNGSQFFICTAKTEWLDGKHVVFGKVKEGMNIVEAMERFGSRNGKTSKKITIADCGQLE
Chain of NRAS G12C (P01111 whole entry G12C): as the sequence (P01111 whole entry Q61K) above, with G12C, K61Q counted along it
Chain of NRAS G12C (P62937 whole entry): as the sequence (P62937 whole entry) above
Chain of KRAS G13D (P01116-2 other isoform, or with tags, fused parts or gaps G13D): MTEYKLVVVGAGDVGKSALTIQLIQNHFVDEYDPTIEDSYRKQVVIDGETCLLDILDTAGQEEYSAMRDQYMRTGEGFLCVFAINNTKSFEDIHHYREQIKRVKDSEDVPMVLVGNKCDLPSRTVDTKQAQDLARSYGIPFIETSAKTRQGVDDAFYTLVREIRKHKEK
Chain of KRAS G13D (P62937 whole entry): as the sequence (P62937 whole entry) above
Chain of KRAS Q61H (P01116-2 other isoform, or with tags, fused parts or gaps Q61H): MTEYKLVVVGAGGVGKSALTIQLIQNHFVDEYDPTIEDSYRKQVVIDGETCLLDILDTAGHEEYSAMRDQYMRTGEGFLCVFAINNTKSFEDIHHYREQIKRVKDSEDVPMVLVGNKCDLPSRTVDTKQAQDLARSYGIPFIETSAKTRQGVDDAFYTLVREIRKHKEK
Chain of KRAS Q61H (P62937 whole entry): as the sequence (P62937 whole entry) above
Chain of KRAS WT (P01116-2 other isoform, or with tags, fused parts or gaps): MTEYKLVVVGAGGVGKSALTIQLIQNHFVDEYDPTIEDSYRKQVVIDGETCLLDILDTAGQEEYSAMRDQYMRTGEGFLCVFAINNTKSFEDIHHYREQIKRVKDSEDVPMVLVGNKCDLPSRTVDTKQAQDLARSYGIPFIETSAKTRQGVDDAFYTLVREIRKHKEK
Chain of KRAS WT (P62937 whole entry): as the sequence (P62937 whole entry) above
Chain of KRAS G12S (P01116-2 other isoform, or with tags, fused parts or gaps G12S): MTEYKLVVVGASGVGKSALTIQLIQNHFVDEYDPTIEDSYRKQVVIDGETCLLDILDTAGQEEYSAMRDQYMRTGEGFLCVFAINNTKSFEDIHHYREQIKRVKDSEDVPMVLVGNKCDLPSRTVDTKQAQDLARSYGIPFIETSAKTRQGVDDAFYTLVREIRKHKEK
Chain of KRAS G12S (P62937 whole entry): as the sequence (P62937 whole entry) above
Chain of KRAS G12D (P01116-2 other isoform, or with tags, fused parts or gaps G12D): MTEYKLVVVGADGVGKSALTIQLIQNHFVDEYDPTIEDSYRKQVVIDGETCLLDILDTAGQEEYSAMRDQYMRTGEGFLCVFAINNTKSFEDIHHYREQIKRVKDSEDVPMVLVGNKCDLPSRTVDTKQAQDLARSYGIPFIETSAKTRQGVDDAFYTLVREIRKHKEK
Chain of KRAS G12D (P62937 whole entry): as the sequence (P62937 whole entry) above
Chain of K-Ras G12C (P01116-2 other isoform, or with tags, fused parts or gaps G12C): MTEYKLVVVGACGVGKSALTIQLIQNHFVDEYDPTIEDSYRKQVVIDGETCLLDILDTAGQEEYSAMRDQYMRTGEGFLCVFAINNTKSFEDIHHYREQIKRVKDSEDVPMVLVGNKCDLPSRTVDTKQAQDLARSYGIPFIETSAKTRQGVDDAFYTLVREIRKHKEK
Chain of K-Ras G12C (P62937 whole entry): as the sequence (P62937 whole entry) above
Chain of NRAS Q61R (P01111 whole entry Q61R, canonical isoform): as the sequence (P01111 whole entry Q61K) above, with K61R counted along it
Chain of NRAS Q61R (P62937 whole entry, canonical isoform): as the sequence (P62937 whole entry) above
Chain of KRAS G12V (P01116-2 other isoform, or with tags, fused parts or gaps G12V): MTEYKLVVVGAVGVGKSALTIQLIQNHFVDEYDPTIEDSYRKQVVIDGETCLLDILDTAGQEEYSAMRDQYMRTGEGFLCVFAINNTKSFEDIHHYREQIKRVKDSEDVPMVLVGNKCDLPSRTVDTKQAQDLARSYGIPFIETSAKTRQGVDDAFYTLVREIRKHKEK
Chain of KRAS G12V (P62937 whole entry): as the sequence (P62937 whole entry) above
Chain of NRAS WT (P01111 whole entry): as the sequence (P01111 whole entry Q61K) above, with K61Q counted along it
Chain of NRAS WT (P62937 whole entry): as the sequence (P62937 whole entry) above
Chain of K-Ras G13C (P01116-2 other isoform, or with tags, fused parts or gaps G13C): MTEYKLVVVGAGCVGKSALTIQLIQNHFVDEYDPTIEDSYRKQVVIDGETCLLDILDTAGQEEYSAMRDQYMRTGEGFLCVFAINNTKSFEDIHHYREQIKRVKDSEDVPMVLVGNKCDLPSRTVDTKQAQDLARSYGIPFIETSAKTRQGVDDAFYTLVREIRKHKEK
Chain of K-Ras G13C (P62937 whole entry): as the sequence (P62937 whole entry) above

SMILES | IC50 [1] [µM] | IC50 [2] [µM] | IC50 [3] [µM] | IC50 [4] [µM] | IC50 [5] [µM] | IC50 [6] [µM] | IC50 [7] [µM] | IC50 [8] [µM] | IC50 [9] [µM] | EC50 [10] [µM] | IC50 [11] [µM] | IC50 [12] [µM] | IC50 [13] [µM]
CO[C@@H](C)c1ncccc1-c1c2c3cc(ccc3n1CC(F)(F)F)-c1csc(n1)C[C@H](NC(=O)[C@H](C(C)C)N(C)C(=O)N1C[C@@H]3OCCN(C(=O)/C=C/C(F)F)[C@@H]3C1)C(=O)N1CCC[C@H](N1)C(=O)OCC(C)(C)C2 (atropisomer, axis not shown) [Example A572] | 0.1 to 1 | 0.01 to 0.1 | 1 to 10 | 0.1 to 1 | 0.1 to 1 | 1 to 10 | 0.01 to 0.1 | 0.1 to 1 | 0.1 to 1 | < 5 | 0.1 to 1 | 0.01 to 0.1 | 0.1 to 1
CO[C@@H](C)c1ncccc1-c1c2c3cc(ccc3n1CC(F)(F)F)-c1csc(n1)C[C@H](NC(=O)[C@H](C(C)C)N(C)C(=O)N1C[C@@H]3OCCN(C(=O)/C=C/CN(C)C)[C@@H]3C1)C(=O)N1CCC[C@H](N1)C(=O)OCC(C)(C)C2 (atropisomer, axis not shown) [Example A573] | 0.1 to 1 | 0.01 to 0.1 | 1 to 10 | 0.1 to 1 | 1 to 10 | 0.1 to 1 | 0.01 to 0.1 | 0.1 to 1 | 0.1 to 1 | < 5 | 0.1 to 1 | 0.01 to 0.1 | 0.1 to 1
CO[C@@H](C)c1ncccc1-c1c2c3cc(ccc3n1CC(F)(F)F)-c1nc(nn1C)C[C@H](NC(=O)[C@H](C(C)C)N(C)C(=O)C1(F)CCN(C(=O)C#CC(C)(C)N(C)C)CC1)C(=O)N1CCC[C@H](N1)C(=O)OCC(C)(C)C2 (atropisomer, axis not shown) [Example A577] | 0.01 to 0.1 | < 0.01 | 0.1 to 1 | 0.01 to 0.1 | 0.1 to 1 | 0.1 to 1 | 0.01 to 0.1 | 0.01 to 0.1 | 0.1 to 1 | < 5 | 0.01 to 0.1 | < 0.01 | 0.01 to 0.1
C=CC(=O)N1CCO[C@@H]2CCN(C(=O)N(C)[C@H](C(=O)N[C@H]3Cc4nc(cs4)-c4ccc5c(c4)c(c(-c4cccnc4[C@H](C)OC)n5CC)CC(C)(C)COC(=O)[C@@H]4CCCN(N4)C3=O)C(C)C)C[C@@H]21 (atropisomer, axis not shown) [Example A581] | 0.1 to 1 | 0.01 to 0.1 | 1 to 10 | 0.1 to 1 | 0.1 to 1 | 0.1 to 1 | 0.1 to 1 | 0.1 to 1 | 0.1 to 1 | < 5 | 0.1 to 1 | 0.01 to 0.1 | 0.1 to 1
